Series [1] concerns human telomerase (HL60 cell extract). Put plainly: Antitelomerase activity, TRAP (extension of oligonucleotide TS and PCR amplification). The format is biochemical. The following applies: telomerase extract from HL60 cells.
For series [2], the system named is G-quadruplex of oligonucleotide GGGTTAGGGTTAGGGTTAGGG (3.5 repeats of the human telomeric motif). Put plainly: G-quadruplex stabilizing activity, fluorescence Tm (FAM+DABCYL oligonucleotide). The format is binding. The settings on record: test product 1 μM, oligonucleotide 0.2 μM, 0.1 M LiCl, 10 mM cacodylate pH 7.6; reference without product 44° C. An excerpt:
The G-quadruplex stabilizing activity may be determined by a method using the formation of a complex with fluorescein of which the experimental protocol is described below. Oligonucleotides […] The oligonucleotide FAM+DABCYL carries the catalogue reference OL-0371-0802. It has the sequence: […] The fluorescein is attached to the 5' end, the DABCYL to the 3' end, by the chemical arms described by Eurogentec. The concentration of the samples is checked by spectrophotometry, recording the absorbance spectrum between 220 and 700 nm and using the molar extinction coefficient provided by the supplier. Buffers All the experiments were carried out in a 10 mM sodium cacodylate buffer pH 7.6 containing 0.1 M lithium chloride (or sodium chloride). The absence of fluorescent contamination in the buffer was checked beforehand. The fluorescent oligonucleotide is added at the final concentration of 0.2 μM. Study of Fluorescence All the measurements of fluorescence were carried out on a Spex Fluorolog DMlB apparatus, using an excitation line width of 1.8 nm and an emission line width of 4.5 nm. The samples are placed in a microquartz cuvette of 0.2×1 cm. The temperature of the sample is controlled by an external water bath. The oligonucleotide alone was analysed at 20, 30, 40, 50, 60, 70 and 80° C. The emission spectra are recorded using an excitation wavelength of 470 nm. The excitation spectra are recorded using either 515 nm or 588 nm as emission wavelength. The spectra are corrected for the response of the instrument by reference curves. A high extinction (80-90%) of the fluorescence of fluorescein at room temperature is observed, in agreement with an intramolecular folding of the oligonucleotide at 20° C. in the form of a G-quadruplex, which induces juxtaposition of its [NT] ends which are respectively linked to fluorescein and to DABCYL. This juxtaposition causes an already-described phenomenon of extinction of fluorescence which is used for “molecular beacons”. Fluorescence Tm: […] The samples are then allowed to incubate for at least 1 hour at 20° C. before each measurement. The use of longer incubation times (up to 24 hours) has no influence on the result obtained. Each experiment allows the measurement of only one sample. The latter is first incubated at an initial temperature of 20° C., heated to 80° C. over 38 minutes, left for 5 minutes at 80° C. and then cooled to 20° C. over 62 minutes. During this time, the fluorescence is measured simultaneously at two emission wavelengths (515 nm and 588 nm) using 470 nm as excitation wavelength. A measurement is carried out every 30 seconds. The temperature of the water bath is recorded in parallel, and the fluorescence profile as a function of the temperature is reconstituted from these values. The fluorescence profiles are then normalized between 20° C. and 80° C., and the temperature for which the intensity of emission at 515 nm is the mean of those at high and low temperature is called Tm. Under these conditions, the Tm of the reference sample without addition of product is 44° C. in a lithium chloride buffer. This temperature is increased to more than 55° C. in a sodium chloride buffer. The addition of a G-quadruplex-stabilizing compound induces an increase in the Tm. This increase is judged to be significant if it is greater than […].

In a further series the test system is A549 cells. The series is described as follows: Cytotoxic activity on human tumour line A549 (neutral red). The settings on record: 96 hours incubation, read-out: Cytotox. A549 IC50. The format is cell-based. The protocol:
The Cytotoxic Biological Activity on Human Tumour Lines is Determined According to the Following Experimental Protocol:
The cells at the exponential growth phase are trypsinized, washed in 1× PBS and are inoculated in 96-well microplates (Costar) in an amount of 4×10^4 cells/ml for A549 and of 1.5×10^4 cells/ml (0.2 ml/well) and then incubated for 96 hours in the presence of variable concentrations of product to be studied (10, 1, 0.1 and 0.01 μg/ml, each point in quadruplicate). 16 hours before the end of the incubation, 0.02% final of neutral red is added to each well. At the end of the incubation, the cells are washed with 1× PBS and lysed with 1% sodium lauryl sulphate. The cellular incorporation of the dye, which reflects cellular growth, is evaluated by spectrophotometry at a wavelength of 540 nm for each sample with the aid of a Dynatech MR5000 reading apparatus.
(compound value−blank value/cell control value−blank value)×100.

Counter-ions that a name gives are not always drawn. Like-named read-outs stand apart in the source and are kept apart here.

For `Cc1cc(N)c2cc(Nc3nc(N)nc(Nc4ccc5c(c4)c(N)cc(C)[n+]5C)n3)ccc2[n+]1C` [Example 1, 2-amino-bis-4,6-[(1′-methyl-4′-amino-6′-quinaldinio)amino]triazine dichloride], in series [1], the IC50 stood at 250 nM.
As to `CC[n+]1c(C)cc(N)c2cc(Nc3nc(N)nc(Nc4ccc5c(c4)c(N)cc(C)[n+]5CC)n3)ccc21` [Example 2, 2-amino-bis-4,6-[(1′-ethyl-4′-amino-6′-quinaldinio)amino]triazine dichloride], the “FLUORESCENCE Tm” value in series [2] amounted to 48° ° C. Further, the IC50 was 56 nM in series [1] and 4700 nM in the series with A549 cells (Homo sapiens, A549, 96 h).
In the case of `Cc1cc(N)c2cc(Nc3nc(Nc4ccc5c(c4)c(N)cc(C)[n+]5C)nc(N(C)C)n3)ccc2[n+]1C` [Example 3, 2-dimethylamino-bis-4,6-[(1′-methyl-4′-amino-6′-quinaldinio)amino]triazine dichloride], the “FLUORESCENCE Tm” value in series [2] is given as 52° ° C. The compound further showed a half-maximal inhibitory concentration (IC50) in series [1] of 220 nM.
For the compound `CNc1nc(Nc2ccc3nc(C)cc(N)c3c2)nc(Nc2ccc3nc(C)cc(N)c3c2)n1` [Example 4, 2-methylamino-bis-4,6-[(4′-amino-6′-quinaldinyl)amino]triazine trihydrochloride], the “FLUORESCENCE Tm” value in series [2] is recorded as 48° ° C. The IC50 in series [1] came to 510 nM; with A549 cells (Homo sapiens, A549, 96 h), 3100 nM.
`C[n+]1cccc2cc(Nc3nc(N)nc(Nc4ccc5c(ccc[n+]5C)c4)n3)ccc21` [Example 5, 2-amino-bis-4,6-[(1′-methyl-6′-quinolinio)amino]triazine dichloride]: the “FLUORESCENCE Tm” value in series [2] turned out to be 57° ° C. The IC50 in series [1] stood at 130 nM.
Turning to `CNc1nc(Nc2ccc3nc(C)cc(NC)c3c2)nc(Nc2ccc3nc(C)cc(NC)c3c2)n1` [Example 6, 2-methylamino-bis-4,6-[(4′-methylamino-6′-quinaldinyl)amino]triazine dichloride trihydrochloride], in series [2], the “FLUORESCENCE Tm” value is recorded as 44° ° C. The half-inhibitory concentration (IC50) in series [1] turned out to be 300 nM; with A549 cells (Homo sapiens, A549, 96 h), 1900 nM.
For `C[n+]1c2ccccc2c(N)c2cc(Nc3nc(N)nc(Nc4ccc5c(c4)c(N)c4ccccc4[n+]5C)n3)ccc21` [Example 7, 2-amino-bis-4,6-[(9′-amino-10′-methyl-2′-acridinio)amino]triazine dichloride hydrochloride], in that order: 55° ° C, 890 nM and 4900 nM.
For `Cc1cc(N)c2cc(Nc3nc(N)nc(Nc4ccc5nc(C)cc(N)c5c4)n3)ccc2n1` [Example 8, 2-amino-bis-4,6-[(4′-amino-6′-quinaldinyl)amino]triazine trihydrochloride], the half-inhibitory concentration (IC50) is 51 nM in series [1] and 9100 nM in the series on A549 cells (Homo sapiens, A549, 96 h).
For `N=C(N)c1ccc(Nc2nc(N)nc(Nc3ccc(C(=N)N)cc3)n2)cc1` [Example 9, 2-Amino-bis-4,6-(p-amidinoanilino)triazine trihydrochloride], in that order: 740 nM and 530 nM.
For `CSc1nc(Nc2ccc3c(c2)c(N)cc(C)[n+]3C)nc(Nc2ccc3c(c2)c(N)cc(C)[n+]3C)n1` [Example 10, 2-methylthio-bis-4,6-[(1′-methyl-4′-amino-6′-quinaldinio)amino]triazine dichloride], in that order: 240 nM and 3600 nM.
As to `Cc1cc(N(C)C)c2cc(Nc3nc(Cl)nc(Nc4ccc5nc(C)cc(N(C)C)c5c4)n3)ccc2n1` [Example 11, 2-chloro-bis-4,6-[(4′-dimethylamino-6′-quinaldinyl)amino]triazine dihydrochloride dihydrate], the “FLUORESCENCE Tm” value in series [2] was 57° ° C. Besides, the IC50 worked out at 3000 nM in series [1] and 5140 nM in the series on A549 cells (Homo sapiens, A549, 96 h).
`CSc1nc(Nc2ccc3nc(C)cc(N(C)C)c3c2)nc(Nc2ccc3nc(C)cc(N(C)C)c3c2)n1` [Example 12, 2-methylthio-bis-4,6-[(4′-dimethylamino-6′-quinaldinyl)amino]triazine hydrate]: the “FLUORESCENCE Tm” value in series [2] is 70° ° C. In series [1], this compound gave an IC50 of 41 nM.
`Cc1cc(N)c2cc(NC(=O)Nc3ccc4nc(C)cc(N)c4c3)ccc2n1` [Example 13, N,N′-(4-amino-6-quinaldinyl)urea dihydrochloride]: the IC50 in series [1] came to 720 nM.
With `C[n+]1ccc(NCCCCCNc2cc[n+](C)c3cc(Cl)ccc23)c2ccc(Cl)cc21` [Example 14, N^1,N^5-bis (7-chloro-1-methyl4-quinolinio)pentane-1,5-diamine diiodide], the IC50 in the series on A549 cells (Homo sapiens, A549, 96 h) came out at 6500 nM.
As to `Cc1cc(N)c2cc(Nc3ccnc(Nc4ccc5nc(C)cc(N)c5c4)n3)ccc2n1.Cl.Cl.Cl.O.O.O.O.O` [Example 15, bis-2,4-[(4′-amino-6′-quinaldinyl)amino]pyrimidine trihydrochloride pentahydrate], the “FLUORESCENCE Tm” value in series [2] is 53° ° C. Also, the IC50 was 490 nM in series [1] and 8700 nM with A549 cells.
Regarding `Cc1cc(N)c2cc(NC(=N)NC(=N)Nc3ccc4nc(C)cc(N)c4c3)ccc2n1` [Example 16, 1,5-(4′-amino-6′-quinaldinyl)-biguanide trihydrochloride dihydrate], the “FLUORESCENCE Tm” value in series [2] came to 52° ° C. For the same compound, the IC50 in the series on A549 cells (Homo sapiens, A549, 96 h) was found to be 5800 nM.
Turning to `CSc1nc(Nc2ccc3nc(C)cc(N)c3c2)nc(Nc2ccc3nc(C)cc(N)c3c2)n1` [Example 17-1], the “G4 Tm” value in series [2] was determined as 57 °C. The IC50 in series [1] came out at 49 nM; in the series on A549 cells (Homo sapiens, A549, 96 h), 1600 nM.
In the case of `CSc1nc(Nc2ccc3c(c2)c(=N)cc(C)n3C)nc(Nc2ccc3c(c2)c(=N)cc(C)n3C)n1` [Example 17-2], the IC50 in series [1] is 950 nM; in the series on A549 cells (Homo sapiens, A549, 96 h), 6100 nM.
For `COc1cc(C)nc2ccc(Nc3nc(Nc4ccc5nc(C)cc(OC)c5c4)nc(SC)n3)cc12` [Example 17-3], in that order: 3900 nM and 3200 nM.
Regarding `CSc1nc(Nc2ccc3nc(C)cc(N)c3c2)nc(N(C)c2ccc3ncccc3c2)n1` [Example 18-1], the “G4 Tm” value in series [2] worked out at 47 °C. The concentration for half-maximal inhibition (IC50) in series [1] is 3500 nM.
The corresponding values for `COc1cc(C)nc2ccc(Nc3nc(Nc4ccc5nc(C)cc(N)c5c4)nc(SC)n3)cc12` [Example 18-2] are 49 °C and 2300 nM.
The corresponding values for `CSc1nc(Nc2ccc3nc(C)cc(C)c3c2)nc(Nc2ccc3nc(C)cc(N)c3c2)n1` [Example 18-4] are 50 °C and 2200 nM.
As to `CSc1nc(Nc2ccc3ncccc3c2)nc(Nc2ccc3nc(C)cc(N)c3c2)n1` [Example 18-5], the “G4 Tm” value in series [2] was 47 °C. In addition, in series [1], 3400 nM corresponded to half-maximal inhibition (IC50).
For the compound `CSc1nc(Nc2ccc3nc(C)cc(N)c3c2)nc(Nc2ccnc3ccccc23)n1` [Example 18-8], the “G4 Tm” value in series [2] was determined as 49 °C. In series [1], this compound registered an IC50 of 3400 nM.
Consider `CCc1cc(Nc2nc(Nc3ccc4nc(C)cc(N)c4c3)nc(SC)n2)ccn1` [Example 18-12], for which the IC50 in series [1] was 2800 nM.
Still for that read-out and setting: the result for `CSc1nc(Nc2ccc3nc(C)ccc3c2)nc(Nc2ccc3nc(C)cc(N)c3c2)n1` [Example 18-13] reads 3400 nM.
As for `CCN(CC)c1nc(Nc2ccncc2)nc(Nc2ccc3nc(C)cc(N)c3c2)n1` [Example 19-2], in series [2], the “G4 Tm” value was 53 °C. The compound also displayed an IC50 in series [1] of 2500 nM.

These data come from patent publication US20040053966A1, “Chemical derivatives and their application as antitelomerase agent” (Aventis Pharms S.A., priority 1999, published 2004).
